Experimental data: patent US4918105A, “Novel compounds with collagenase-inhibiting activity, a process for their preparation and pharmaceutical compositions in which these compounds are present” (SA Laboratoire Roger Bellon, priority 1987, dated 1990)
Like-named read-outs stand apart in the source and are kept apart here.

Legend:
[1] = biological target: T1, Porcine collagenase (Sus scrofa, UniProt P21692); test: Specificity of the inhibition: porcine collagenase; assay type: biochemical; details: for inhibition at 10 µM: 10^-5 M; for inhibition at 0.1 µM: 10^-7 M
T1 construct: isolated from synovial cells in culture; endogenous in cells; host or cells: porcine synovial cells in culture
T1 sequence (P21692 100-469): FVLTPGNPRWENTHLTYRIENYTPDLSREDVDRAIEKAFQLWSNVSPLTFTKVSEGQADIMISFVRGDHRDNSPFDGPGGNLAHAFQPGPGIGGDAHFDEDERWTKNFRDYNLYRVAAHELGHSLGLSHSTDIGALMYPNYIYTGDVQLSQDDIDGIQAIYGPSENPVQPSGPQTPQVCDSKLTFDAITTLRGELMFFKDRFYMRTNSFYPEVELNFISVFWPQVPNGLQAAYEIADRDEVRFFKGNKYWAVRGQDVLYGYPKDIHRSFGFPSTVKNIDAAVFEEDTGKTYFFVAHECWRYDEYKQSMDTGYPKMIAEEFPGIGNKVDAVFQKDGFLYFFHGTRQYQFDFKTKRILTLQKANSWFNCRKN
Procedure: (§1) The anticollagenase activity of the compounds according to the present invention was determined on synovial collagenase of porcine or human origin, isolated from synovial cells in culture according to the procedure described by Cawston and Barrett (Cawston and Barrett (1979), Anal. Biochem. 99, 340-345). The collagenase was incubated at 37° C. with radiolabeled collagen and its activity was determined by the release of the soluble peptides produced by enzymatic degradation of the collagen. The inhibitory concentration IC50 for each compound was determined by measuring the activity of the enzyme in the presence of the inhibitor at a concentration of between 10^-5 and 10^-8 M.
(§2) The specificity of the inhibition was measured by studying several other enzymes, including metalloporteases other than collagenase.

[2] = biological target: T2, Human collagenase (Homo sapiens, UniProt P03956); test: Specificity of the inhibition: human collagenase; assay type: biochemical; details: for inhibition at 10 µM: 10^-5 M; for inhibition at 0.1 µM: 10^-7 M
T2 construct: isolated from synovial cells in culture; endogenous in cells; host or cells: human synovial cells in culture
T2 sequence (P03956 100-469): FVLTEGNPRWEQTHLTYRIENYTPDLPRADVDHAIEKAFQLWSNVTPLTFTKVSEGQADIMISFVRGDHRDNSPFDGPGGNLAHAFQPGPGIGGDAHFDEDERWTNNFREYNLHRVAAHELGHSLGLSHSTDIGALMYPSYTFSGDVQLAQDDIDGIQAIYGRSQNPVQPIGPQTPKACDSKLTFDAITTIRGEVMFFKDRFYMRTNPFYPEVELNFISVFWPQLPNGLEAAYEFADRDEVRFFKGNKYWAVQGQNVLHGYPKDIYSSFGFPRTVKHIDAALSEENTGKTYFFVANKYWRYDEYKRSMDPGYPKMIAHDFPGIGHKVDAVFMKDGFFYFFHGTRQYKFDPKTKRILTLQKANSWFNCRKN
Procedure: as §1, §2

[3] = biological target: ACE (Homo sapiens, UniProt P12821); test: Specificity of the inhibition: ACE; assay type: biochemical; details: for inhibition at 10 µM: 10^-5 M; for inhibition at 0.1 µM: 10^-7 M
Chain of ACE (P12821 30-1306, species assumed): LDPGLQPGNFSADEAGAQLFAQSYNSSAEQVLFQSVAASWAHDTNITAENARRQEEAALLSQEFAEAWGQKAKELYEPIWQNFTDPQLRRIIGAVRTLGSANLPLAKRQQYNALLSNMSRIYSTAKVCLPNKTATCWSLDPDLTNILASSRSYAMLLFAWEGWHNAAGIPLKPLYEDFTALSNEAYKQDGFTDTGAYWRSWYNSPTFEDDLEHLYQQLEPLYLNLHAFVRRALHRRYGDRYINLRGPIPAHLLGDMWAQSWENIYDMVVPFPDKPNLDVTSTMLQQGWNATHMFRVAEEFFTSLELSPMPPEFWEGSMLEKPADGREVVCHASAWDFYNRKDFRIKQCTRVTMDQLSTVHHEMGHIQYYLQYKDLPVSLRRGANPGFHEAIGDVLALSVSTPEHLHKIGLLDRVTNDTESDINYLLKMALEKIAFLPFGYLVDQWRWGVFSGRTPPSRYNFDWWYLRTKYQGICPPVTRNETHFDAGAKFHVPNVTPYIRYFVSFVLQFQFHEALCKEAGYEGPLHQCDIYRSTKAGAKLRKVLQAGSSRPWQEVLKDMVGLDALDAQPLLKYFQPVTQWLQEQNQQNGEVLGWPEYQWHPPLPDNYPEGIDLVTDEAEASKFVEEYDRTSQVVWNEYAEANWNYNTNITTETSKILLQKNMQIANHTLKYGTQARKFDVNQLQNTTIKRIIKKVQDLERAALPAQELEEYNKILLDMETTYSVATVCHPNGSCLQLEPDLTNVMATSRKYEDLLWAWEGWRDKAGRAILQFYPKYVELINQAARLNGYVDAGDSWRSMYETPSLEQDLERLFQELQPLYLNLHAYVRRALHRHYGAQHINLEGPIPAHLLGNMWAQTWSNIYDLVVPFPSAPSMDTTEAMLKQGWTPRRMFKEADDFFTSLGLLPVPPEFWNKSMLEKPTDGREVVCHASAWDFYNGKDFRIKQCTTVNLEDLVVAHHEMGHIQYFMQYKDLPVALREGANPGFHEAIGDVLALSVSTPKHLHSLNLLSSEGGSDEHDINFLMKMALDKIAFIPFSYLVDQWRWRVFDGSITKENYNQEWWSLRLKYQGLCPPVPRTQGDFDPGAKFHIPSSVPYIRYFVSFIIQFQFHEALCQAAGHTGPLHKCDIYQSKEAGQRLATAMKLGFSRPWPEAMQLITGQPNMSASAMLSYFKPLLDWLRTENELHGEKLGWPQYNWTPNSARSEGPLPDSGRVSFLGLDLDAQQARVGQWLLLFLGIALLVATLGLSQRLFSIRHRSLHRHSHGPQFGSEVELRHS
Procedure: as §2

[4] = biological target: T3, Carboxypeptidase A (Bos taurus, UniProt P00730); test: Specificity of the inhibition: carboxypeptidase A; assay type: biochemical; details: for inhibition at 10 µM: 10^-5 M; for inhibition at 0.1 µM: 10^-7 M
T3 sequence (P00730 111-419): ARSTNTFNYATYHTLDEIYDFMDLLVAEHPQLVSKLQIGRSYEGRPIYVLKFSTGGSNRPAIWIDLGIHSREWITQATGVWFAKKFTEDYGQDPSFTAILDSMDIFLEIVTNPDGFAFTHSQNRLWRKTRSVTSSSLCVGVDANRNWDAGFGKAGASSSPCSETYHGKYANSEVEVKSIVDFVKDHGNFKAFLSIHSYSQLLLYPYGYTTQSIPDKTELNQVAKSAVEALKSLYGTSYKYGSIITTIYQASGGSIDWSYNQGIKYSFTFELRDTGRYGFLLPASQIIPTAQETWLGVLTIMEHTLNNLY
Procedure: as §2

[5] = biological target: T4, Carboxypeptidase B (Sus scrofa, UniProt P09955); test: Specificity of the inhibition: carboxypeptidase B; assay type: biochemical; details: for inhibition at 10 µM: 10^-5 M; for inhibition at 0.1 µM: 10^-7 M
T4 sequence (P09955 111-416): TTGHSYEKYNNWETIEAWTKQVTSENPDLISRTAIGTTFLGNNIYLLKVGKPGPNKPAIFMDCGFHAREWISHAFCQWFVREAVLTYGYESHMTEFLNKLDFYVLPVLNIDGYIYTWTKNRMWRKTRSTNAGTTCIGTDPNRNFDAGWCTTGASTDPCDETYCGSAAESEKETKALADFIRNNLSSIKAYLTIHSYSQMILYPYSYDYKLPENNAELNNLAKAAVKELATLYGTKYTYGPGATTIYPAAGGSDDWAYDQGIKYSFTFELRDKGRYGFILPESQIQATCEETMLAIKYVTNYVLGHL
Procedure: as §2

[6] = biological target: α-Chymotrypsin (Bos taurus, UniProt P00766); test: Specificity of the inhibition: α-chymotrypsin; assay type: biochemical; details: for inhibition at 10 µM: 10^-5 M; for inhibition at 0.1 µM: 10^-7 M
Procedure: as §2

[7] = biological target: Plasmin (Homo sapiens, UniProt P00747); test: Specificity of the inhibition: plasmin; assay type: biochemical; details: for inhibition at 10 µM: 10^-5 M; for inhibition at 0.1 µM: 10^-7 M
Chain of Plasmin (P00747 581-810 limits assumed, species assumed): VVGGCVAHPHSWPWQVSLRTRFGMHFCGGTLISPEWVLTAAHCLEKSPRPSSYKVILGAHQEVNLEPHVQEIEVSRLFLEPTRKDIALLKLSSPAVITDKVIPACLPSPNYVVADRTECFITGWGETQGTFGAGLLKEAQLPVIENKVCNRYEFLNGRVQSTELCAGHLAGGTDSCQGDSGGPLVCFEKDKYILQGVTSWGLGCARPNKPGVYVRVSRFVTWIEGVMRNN
Chain of Plasmin (P00747 97-580 partner limits assumed, species assumed): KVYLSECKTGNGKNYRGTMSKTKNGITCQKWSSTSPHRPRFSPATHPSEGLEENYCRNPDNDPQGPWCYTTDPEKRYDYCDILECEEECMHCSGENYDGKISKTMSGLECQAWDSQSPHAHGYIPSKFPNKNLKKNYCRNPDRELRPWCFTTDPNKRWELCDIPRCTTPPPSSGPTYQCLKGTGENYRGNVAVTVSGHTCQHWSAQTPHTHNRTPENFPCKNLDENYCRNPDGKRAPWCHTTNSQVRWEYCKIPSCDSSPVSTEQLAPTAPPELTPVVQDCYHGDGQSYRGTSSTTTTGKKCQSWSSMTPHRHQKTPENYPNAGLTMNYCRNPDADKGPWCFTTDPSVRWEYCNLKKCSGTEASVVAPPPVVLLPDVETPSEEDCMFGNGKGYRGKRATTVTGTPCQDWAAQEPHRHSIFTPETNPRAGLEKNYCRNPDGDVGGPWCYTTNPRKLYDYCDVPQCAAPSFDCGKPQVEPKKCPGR
Procedure: as §2

[8] = biological target: Thrombin (Homo sapiens, UniProt P00734); test: Specificity of the inhibition: thrombin; assay type: biochemical; details: for inhibition at 10 µM: 10^-5 M; for inhibition at 0.1 µM: 10^-7 M
Procedure: as §2

[9] = biological target: T5, Trypsin (Bos taurus, UniProt P00760); test: Specificity of the inhibition: trypsin; assay type: biochemical; details: for inhibition at 10 µM: 10^-5 M; for inhibition at 0.1 µM: 10^-7 M
T5 sequence (P00760 24-246): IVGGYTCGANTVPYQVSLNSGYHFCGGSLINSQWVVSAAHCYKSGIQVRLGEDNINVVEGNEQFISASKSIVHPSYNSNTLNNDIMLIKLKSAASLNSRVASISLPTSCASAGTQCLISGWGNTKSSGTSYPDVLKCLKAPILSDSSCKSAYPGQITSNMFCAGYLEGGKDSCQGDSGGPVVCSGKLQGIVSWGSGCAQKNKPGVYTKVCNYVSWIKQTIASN
Procedure: as §2

[10] = biological target: T6, Papain (Carica papaya, UniProt P00784); test: Specificity of the inhibition: papain; assay type: biochemical; details: for inhibition at 10 µM: 10^-5 M; for inhibition at 0.1 µM: 10^-7 M
T6 sequence (P00784 134-345): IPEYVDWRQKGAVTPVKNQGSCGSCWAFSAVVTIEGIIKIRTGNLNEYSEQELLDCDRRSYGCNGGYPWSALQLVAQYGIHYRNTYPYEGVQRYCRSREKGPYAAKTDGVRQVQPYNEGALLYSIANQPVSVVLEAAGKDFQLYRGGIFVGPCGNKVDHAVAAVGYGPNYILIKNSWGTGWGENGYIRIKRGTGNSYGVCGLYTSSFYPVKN
Procedure: as §2

[11] = biological target: Pepsin (Sus scrofa, UniProt P00791); test: Specificity of the inhibition: pepsin; assay type: biochemical; details: for inhibition at 10 µM: 10^-5 M; for inhibition at 0.1 µM: 10^-7 M
Chain of Pepsin (P00791 60-385): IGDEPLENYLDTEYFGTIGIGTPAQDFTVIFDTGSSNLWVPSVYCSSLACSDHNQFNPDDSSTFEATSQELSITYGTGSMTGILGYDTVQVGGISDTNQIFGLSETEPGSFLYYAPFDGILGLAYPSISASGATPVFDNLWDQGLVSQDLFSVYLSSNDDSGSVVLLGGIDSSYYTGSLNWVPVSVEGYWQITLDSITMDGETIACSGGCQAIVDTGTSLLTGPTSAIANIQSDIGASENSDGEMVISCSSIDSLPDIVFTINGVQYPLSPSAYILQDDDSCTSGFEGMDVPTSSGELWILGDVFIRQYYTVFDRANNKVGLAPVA
Procedure: as §2

[12] = biological target: synovial collagenase of porcine or human origin; test: Anticollagenase activity: release of soluble peptides from radiolabeled collagen; assay type: biochemical
Procedure: as §1
Representative results of these tests are given for the compounds according to the invention in Table I.

[13] = test system: bone resorption; test: Bone resorption model in isolated organ (Ca++ release); assay type: cell-based
Excerpt: Anticollagenase activity has also been determined in a bone resorption model described by Delaisse et al. (Delaisse et al. (1985), Biochem. Biophys. Res. commun., 133, 483-490). This model, which utilizes the degradation of cartilage and bone in an isolated organ, is more physiological than direct determination of the enzyme activity in vitro. The results of the tests are collated in Table II; the same inhibitors are found to be active in both systems.

[14] = Table I, % inhibition 50, read-out: Concentration for 50 % inhibition (IC50), anticollagenase activity

Structure (SMILES)	inhibition at 10 µM [1] [%]	inhibition at 0.1 µM [1] [%]	inhibition at 10 µM [2] [%]	inhibition at 0.1 µM [2] [%]	inhibition at 10 µM [3] [%]	inhibition at 0.1 µM [3] [%]	inhibition at 10 µM [4] [%]	inhibition at 0.1 µM [4] [%]	inhibition at 10 µM [5] [%]	inhibition at 0.1 µM [5] [%]	inhibition at 10 µM [6] [%]	inhibition at 0.1 µM [6] [%]	inhibition at 10 µM [7] [%]	inhibition at 0.1 µM [7] [%]	inhibition at 10 µM [8] [%]	inhibition at 0.1 µM [8] [%]	inhibition at 10 µM [9] [%]	inhibition at 0.1 µM [9] [%]	inhibition at 10 µM [10] [%]	IC50 [12, 14] [nM]	other results
CC(C)CC(CC(=O)NO)C(=O)N[C@H](C(=O)NCc1ccccc1)C(C)C (single isomer, unassigned) [Example 2, N-Benzyl-Nα-(N-hydroxy-2-isobutylsuccinamoyl)-L-valinamide]	100	52	100	30	40	4	0	0	0	0	0	0	0	0	5	0	0	0	5		inhibition at 0.1 µM [10]: 0%; inhibition at 10 µM [11]: 19%; inhibition at 0.1 µM [11]: 0%
CC(C)CC(CC(=O)NO)C(=O)N[C@H](C(=O)NCc1ccccc1)C(C)C (single isomer, unassigned) [Example 2, isomer A, N-Benzyl-Nα-(N-hydroxy-2-isobutylsuccinamoyl)-L-valinamide]																					IC50 ([12]; Table II, read-out: collagenase inhibition IC50): 16000 nM; % protection against bone resorption (Ca++ release) ([13]; 8 μM): 0%; % protection against bone resorption (Ca++ release) ([13]; 25 μM): 0%
CC(C)CC(CC(=O)NO)C(=O)N[C@H](C(=O)NCc1ccccc1)C(C)C (single isomer, unassigned) [Example 3, N-Benzyl-Nα-(N-hydroxy-2-isobutylsuccinamoyl)-L-valinamide, B form]																				35	IC50 ([12]; Table II, listed as Example 2, isomer B, read-out: collagenase inhibition IC50): 35 nM; % protection against bone resorption (Ca++ release) ([13]; 8 μM, listed as Example 2, isomer B): 90-100%; % protection against bone resorption (Ca++ release) ([13]; 25 μM, listed as Example 2, isomer B): 90-100%
CC(C)CC(CC(=O)NO)C(=O)N[C@H](C(=O)NCc1ccc(C(F)(F)F)cc1)C(C)C (single isomer, unassigned) [Example 4, N-(4-Trifluoromethylbenzyl)-Nα-(N-hydroxy-2-isobutylsuccinamoyl)-L-valinamide, B form]																				80	
CC(C)CC(CC(=O)NO)C(=O)N[C@H](C(=O)NCCc1ccccc1)C(C)C (single isomer, unassigned) [Example 5, N-Phenethyl-Nα-(N-hydroxy-2-isobutylsuccinamoyl)-L-valinamide, B form]																				75	
CC(C)CC(CC(=O)NO)C(=O)N[C@H](C(N)=O)C(C)C (stereo partly drawn) [Example 1, Nα-(N-hydroxy-2-isobutylsuccinamoyl)-L-valinamide]	100	23	100	12	4	0	0	0	0	0	0	0	0	0	0	0	0	0	5	320	inhibition at 0.1 µM [10]: 0%; inhibition at 10 µM [11]: 19%; inhibition at 0.1 µM [11]: 0%
